Measured values as given in US20250145665A1, “MACROCYCLIC PEPTIDES USEFUL AS MODULATORS OF TNF ALPHA” (Bristol-Myers Squibb Company, priority 2023, published 2025).
pIC50: −log10 of the molar value. Starred links: 1 amine or outer side, 2 acyl side, 3 side chain; linkers in the order of their positions; H or OH if unused. Positions of bridges follow the written chain, without caps; N, C: chain ends. Non-standard residues stand in square brackets, D forms with d. Residues, ends and D or L forms follow the SMILES beside them. *: point of attachment. Bip(4'-NHCO-C6H4-3-CH2COOH) = N[C@@H](Cc1ccc(-c2ccc(NC(=O)c3cccc(CC(=O)O)c3)cc2)cc1)C(=O)O; Bip(4'-NHCO-C6H4-4-CH2COOH) = N[C@@H](Cc1ccc(-c2ccc(NC(=O)c3ccc(CC(=O)O)cc3)cc2)cc1)C(=O)O; Bip(4'-NH) = O=C([C@H](Cc1ccc(-c2ccc(N[*:3])cc2)cc1)N[*:1])[*:2]; Bip(4'-COOH) = N[C@@H](Cc1ccc(-c2ccc(C(=O)O)cc2)cc1)C(=O)O; Bip(4'-NHAc) = CC(=O)Nc1ccc(-c2ccc(C[C@H](N)C(=O)O)cc2)cc1; Ala(morpholin-4-yl) = N[C@@H](CN1CCOCC1)C(=O)O; Benzoyl(3-OCH2COOH) = O=C(O)COc1cccc(C(=O)*)c1; Bip = N[C@@H](Cc1ccc(-c2ccccc2)cc1)C(=O)O; 2Pal = N[C@@H](Cc1ccccn1)C(=O)O; 2Thi = N[C@@H](Cc1cccs1)C(=O)O; Cha = N[C@@H](CC1CCCCC1)C(=O)O; Tle = CC(C)(C)[C@H](N)C(=O)O; Sar = CNCC(=O)O

Target: TNFα (Homo sapiens, UniProt P01375)
Assay: TNF-Induced HEK-Blue Assay
Assay type: cell-based
Details: HEK-Blue-CD40L cells, NF-kB-driven secreted alkaline phosphatase reporter; TNFα 0.5 ng/ml; 18 h; read-out: TNF induced HEK-Blue assay IC50 value
Description: TNFα (final concentration 0.5 ng/ml) or CD40L (final concentration 30 ng/ml) in assay buffer [DMEM, 4.5 g/l glucose (Gibco, Cat. 21063-029), 10% FBS (Sigma, F4135), 1% Penicillin-Streptomycin (Gibco, Cat. 15140-122), 1% Anti-Anti (Gibco, Cat. 15240-112) and 2 mM L-glutamine (Gibco, Cat. 25030-081)] was then added to the assay plate. After a 30 minute pre-incubation at 37° C. and 5% CO2, HEK-Blue™-CD40L cells (INVIVOGEN, Cat. Code hkb-cd40) containing a NF-kB-driven secreted alkaline phosphatase reporter gene were seeded into the assay plate at a density of 20,000 cells per well. This plate was then incubated for 18 h at 37° C. and 5% CO2. Secreted alkaline phosphatase expression was measured using QUANTI-Blue™ (INVIVOGEN, Cat. Code rep-qb1) according to manufacturer's specifications and the assay plate was read on a PerkinElmer Envision at 620 nm.
IC50 values were determined after correcting for background [(sample read-mean of low control)/(mean of high control-mean of low control)] where by the low control is DMSO without stimulation and high control is DMSO with stimulation.

TNFα, sequence (P01375 77-233 limits assumed): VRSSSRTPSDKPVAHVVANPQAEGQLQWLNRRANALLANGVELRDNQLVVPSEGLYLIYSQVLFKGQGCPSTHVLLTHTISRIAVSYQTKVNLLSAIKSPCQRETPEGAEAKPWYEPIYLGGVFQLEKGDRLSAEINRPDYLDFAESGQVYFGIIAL

First: CC(=O)Nc1ccc(-c2ccc(C[C@@H]3NC(=O)[C@H](Cc4ccc(-c5ccccc5)cc4)NC(=O)[C@H](C(C)(C)C)NC(=O)CSC[C@@H](C(=O)NCC(N)=O)NC(=O)[C@H](CC(C)C)NC(=O)[C@H](Cc4cccs4)NC(=O)[C@H](C(C)C)NC(=O)[C@@H]4CCCN4C(=O)[C@H](C(C)C)NC(=O)[C@@H](CCCNC(=N)N)NC(=O)[C@H](CC(=O)O)NC(=O)[C@H](Cc4ccccn4)NC(=O)CN(C)C3=O)cc2)cc1 [Example 605] ({CH2CO}-[Tle][Bip][Bip(4'-NHAc)][Sar][2Pal]D[dR]VPV[2Thi]LCG-NH2; thioether N-13)
Second: CC(C)C[C@@H]1NC(=O)[C@H](Cc2cccs2)NC(=O)[C@H](C(C)C)NC(=O)[C@@H]2CCCN2C(=O)[C@H](C(C)C)NC(=O)[C@@H](CCCNC(=N)N)NC(=O)[C@H](CC(=O)O)NC(=O)[C@H](Cc2ccccn2)NC(=O)CN(C)C(=O)[C@H](Cc2ccc(-c3ccc(NC(=O)c4ccc(CC(=O)O)cc4)cc3)cc2)NC(=O)[C@H](Cc2ccc(-c3ccccc3)cc2)NC(=O)[C@H](CN2CCOCC2)NC(=O)CSC[C@@H](C(=O)NCC(N)=O)NC1=O [Example 607] ({CH2CO}-[Ala(morpholin-4-yl)][Bip][Bip(4'-NHCO-C6H4-4-CH2COOH)][Sar][2Pal]D[dR]VPV[2Thi]LCG-NH2; thioether N-13)
The pIC50 of the first is lower: 5.70 to 6.70 for the first, greater than 7.30 for the second. The second is the more potent here.

`CC(C)C[C@@H]1NC(=O)[C@H](Cc2cccs2)NC(=O)[C@H](C(C)C)NC(=O)[C@@H]2CCCN2C(=O)[C@H](C(C)C)NC(=O)[C@@H](CCCNC(=N)N)NC(=O)[C@H](CC(=O)O)NC(=O)[C@H](Cc2ccccn2)NC(=O)CN(C)C(=O)[C@H](Cc2ccc(-c3ccc(NC(=O)c4cccc(OCC(=O)O)c4)cc3)cc2)NC(=O)[C@H](Cc2ccc(-c3ccccc3)cc2)NC(=O)[C@H](CN2CCOCC2)NC(=O)CSC[C@@H](C(=O)NCC(N)=O)NC1=O` [Example 606] ({CH2CO}-[Ala(morpholin-4-yl)][Bip][Bip(4'-NH)](Benzoyl(3-OCH2COOH))[Sar][2Pal]D[dR]VPV[2Thi]LCG-NH2; thioether N-13) and `CC(C)C[C@@H]1NC(=O)[C@H](Cc2cccs2)NC(=O)[C@H](C(C)C)NC(=O)[C@@H]2CCCN2C(=O)[C@H](C(C)C)NC(=O)[C@@H](CCCNC(=N)N)NC(=O)[C@H](CC(=O)O)NC(=O)[C@H](Cc2ccccn2)NC(=O)CN(C)C(=O)[C@H](Cc2ccc(-c3ccc(NC(=O)c4cccc(CC(=O)O)c4)cc3)cc2)NC(=O)[C@H](Cc2ccc(-c3ccccc3)cc2)NC(=O)[C@H](CN2CCOCC2)NC(=O)CSC[C@@H](C(=O)NCC(N)=O)NC1=O` [Example 608] ({CH2CO}-[Ala(morpholin-4-yl)][Bip][Bip(4'-NHCO-C6H4-3-CH2COOH)][Sar][2Pal]D[dR]VPV[2Thi]LCG-NH2; thioether N-13) cannot be ordered by pIC50: greater than 7.30 for the first, greater than 7.30 for the second.

`CC(C)C[C@@H]1NC(=O)[C@H](Cc2cccs2)NC(=O)[C@H](C(C)C)NC(=O)[C@@H]2CCCN2C(=O)[C@H](C(C)C)NC(=O)[C@@H](CCCNC(=N)N)NC(=O)[C@H](CC(=O)O)NC(=O)[C@H](Cc2ccccn2)NC(=O)CN(C)C(=O)[C@H](Cc2ccc(-c3ccc(NC(=O)c4cccc(OCC(=O)O)c4)cc3)cc2)NC(=O)[C@H](Cc2ccc(-c3ccc(C(=O)O)cc3)cc2)NC(=O)[C@H](CN2CCOCC2)NC(=O)CSC[C@@H](C(=O)NCC(N)=O)NC1=O` [Example 609] ({CH2CO}-[Ala(morpholin-4-yl)][Bip(4'-COOH)][Bip(4'-NH)](Benzoyl(3-OCH2COOH))[Sar][2Pal]D[dR]VPV[2Thi]LCG-NH2; thioether N-13) and `CC(C)C[C@@H]1NC(=O)[C@H](Cc2cccs2)NC(=O)[C@H](C(C)C)NC(=O)[C@@H]2CCCN2C(=O)[C@H](C(C)C)NC(=O)[C@@H](CCCNC(=N)N)NC(=O)[C@H](CC(=O)O)NC(=O)[C@H](Cc2ccccn2)NC(=O)CN(C)C(=O)[C@H](Cc2ccc(-c3ccc(NC(=O)c4cccc(CC(=O)O)c4)cc3)cc2)NC(=O)[C@H](Cc2ccc(-c3ccc(C(=O)O)cc3)cc2)NC(=O)[C@H](CN2CCOCC2)NC(=O)CSC[C@@H](C(=O)NCC(N)=O)NC1=O` [Example 610] ({CH2CO}-[Ala(morpholin-4-yl)][Bip(4'-COOH)][Bip(4'-NHCO-C6H4-3-CH2COOH)][Sar][2Pal]D[dR]VPV[2Thi]LCG-NH2; thioether N-13) cannot be ordered by pIC50: greater than 7.30 for the first, greater than 7.30 for the second.

First: CC(C)C[C@@H]1NC(=O)[C@H](Cc2cccs2)NC(=O)[C@H](C(C)C)NC(=O)[C@@H]2CCCN2C(=O)[C@H](C(C)C)NC(=O)[C@@H](CCCNC(=N)N)NC(=O)[C@H](CC(=O)O)NC(=O)[C@H](Cc2ccccn2)NC(=O)CN(C)C(=O)[C@H](Cc2ccc(-c3ccc(NC(=O)c4ccc(CC(=O)O)cc4)cc3)cc2)NC(=O)[C@H](Cc2ccc(-c3ccc(C(=O)O)cc3)cc2)NC(=O)[C@H](CN2CCOCC2)NC(=O)CSC[C@@H](C(=O)NCC(N)=O)NC1=O [Example 611] ({CH2CO}-[Ala(morpholin-4-yl)][Bip(4'-COOH)][Bip(4'-NHCO-C6H4-4-CH2COOH)][Sar][2Pal]D[dR]VPV[2Thi]LCG-NH2; thioether N-13)
Second: CC(C)C[C@@H]1NC(=O)[C@H](Cc2cccs2)NC(=O)[C@H](C(C)C)NC(=O)[C@@H]2CCCN2C(=O)[C@H](C(C)C)NC(=O)[C@@H](CCCNC(=N)N)NC(=O)[C@H](CC(=O)O)NC(=O)[C@H](Cc2ccccn2)NC(=O)CN(C)C(=O)[C@H](Cc2ccc(-c3ccc(NC(=O)c4ccc(CC(=O)O)cc4)cc3)cc2)NC(=O)[C@H](Cc2ccc(-c3ccc(C(=O)O)cc3)cc2)NC(=O)[C@H](CC2CCCCC2)NC(=O)CSC[C@@H](C(=O)NCC(N)=O)NC1=O [Example 612] ({CH2CO}-[Cha][Bip(4'-COOH)][Bip(4'-NHCO-C6H4-4-CH2COOH)][Sar][2Pal]D[dR]VPV[2Thi]LCG-NH2; thioether N-13)
The pIC50 of the first is higher: greater than 7.30 for the first, 6.70 to 7.30 for the second. The first is the more potent here.

`CC(C)C[C@@H]1NC(=O)[C@H](Cc2cccs2)NC(=O)[C@H](C(C)C)NC(=O)[C@@H]2CCCN2C(=O)[C@H](C(C)C)NC(=O)[C@@H](CCCNC(=N)N)NC(=O)[C@H](CC(=O)O)NC(=O)[C@H](Cc2ccccn2)NC(=O)CN(C)C(=O)[C@H](Cc2ccc(-c3ccc(NC(=O)c4cccc(CC(=O)O)c4)cc3)cc2)NC(=O)[C@H](Cc2ccc(-c3ccc(C(=O)O)cc3)cc2)NC(=O)[C@H](CC2CCCCC2)NC(=O)CSC[C@@H](C(=O)NCC(N)=O)NC1=O` [Example 613] ({CH2CO}-[Cha][Bip(4'-COOH)][Bip(4'-NHCO-C6H4-3-CH2COOH)][Sar][2Pal]D[dR]VPV[2Thi]LCG-NH2; thioether N-13) and `CC(C)C[C@@H]1NC(=O)[C@H](Cc2cccs2)NC(=O)[C@H](C(C)C)NC(=O)[C@@H]2CCCN2C(=O)[C@H](C(C)C)NC(=O)[C@@H](CCCNC(=N)N)NC(=O)[C@H](CC(=O)O)NC(=O)[C@H](Cc2ccccn2)NC(=O)CN(C)C(=O)[C@H](Cc2ccc(-c3ccc(NC(=O)c4cccc(OCC(=O)O)c4)cc3)cc2)NC(=O)[C@H](Cc2ccc(-c3ccc(C(=O)O)cc3)cc2)NC(=O)[C@H](CC2CCCCC2)NC(=O)CSC[C@@H](C(=O)NCC(N)=O)NC1=O` [Example 614] ({CH2CO}-[Cha][Bip(4'-COOH)][Bip(4'-NH)](Benzoyl(3-OCH2COOH))[Sar][2Pal]D[dR]VPV[2Thi]LCG-NH2; thioether N-13) fall in the same range of pIC50: 6.70 to 7.30 for the first, 6.70 to 7.30 for the second.
